Structures are written as SMILES.

The target of this test is Acetylcholinesterase (Homo sapiens, UniProt P22303).
Sequence of Acetylcholinesterase (P22303 whole entry): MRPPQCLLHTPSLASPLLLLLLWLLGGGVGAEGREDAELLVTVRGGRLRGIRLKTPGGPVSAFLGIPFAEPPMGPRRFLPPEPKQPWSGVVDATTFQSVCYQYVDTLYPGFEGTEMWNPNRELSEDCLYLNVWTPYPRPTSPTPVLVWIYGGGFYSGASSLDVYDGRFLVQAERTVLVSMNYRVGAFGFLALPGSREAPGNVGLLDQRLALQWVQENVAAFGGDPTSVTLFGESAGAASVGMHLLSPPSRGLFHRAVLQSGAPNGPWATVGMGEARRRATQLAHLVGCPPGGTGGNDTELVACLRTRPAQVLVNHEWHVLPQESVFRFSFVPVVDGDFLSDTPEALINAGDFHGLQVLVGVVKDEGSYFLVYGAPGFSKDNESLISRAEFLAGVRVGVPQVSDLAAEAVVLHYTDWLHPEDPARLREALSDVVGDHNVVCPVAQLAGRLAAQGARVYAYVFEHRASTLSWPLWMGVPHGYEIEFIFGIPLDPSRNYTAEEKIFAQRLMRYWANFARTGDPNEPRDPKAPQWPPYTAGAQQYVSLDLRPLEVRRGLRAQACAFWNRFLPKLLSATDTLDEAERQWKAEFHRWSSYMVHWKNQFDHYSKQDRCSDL
As to `O=C(CC1S/C(=N/c2ccc(C3CCCCC3)cc2)NC1=O)Nc1ccc(OC(F)(F)F)cc1` (stereo unspecified), the IC50 (usually the concentration at which inhibition is half-maximal) stood at 2900 nM.
The result for `c1ccc(-c2ccc(NCCN3CCc4ccccc4C3)nn2)cc1` reads 83000 nM.
The figure for `CCCN1CCc2cc(C(=O)CCC3CCN(Cc4ccccc4)CC3)ccc21` is 22 nM.
In turn, `O=C(c1ccccc1)c1ccc2c(c1)C(=O)N(CCC1CCN(Cc3ccccc3)CC1)C2=O` displayed an IC50 of 2.4 nM. Compared with the last molecule, the IC50 is about 9.2-fold lower.
As for `O=C(Nc1ccc2c(c1)C(=O)N(CCC1CCN(Cc3ccccc3)CC1)C2=O)c1ccccc1`, the IC50 turned out to be 1.2 nM. Against the preceding molecule, the IC50 is about 2-fold lower.
Molecule `CNC(=O)Nc1cccc2n1cc(-c1ccc(OC(=O)N(C)C)cc1)[n+]2C` yielded a half-inhibitory concentration (IC50) of 1350 nM.
The molecule `Cn1cc(C(=O)NCCCCCCCNc2c3c(nc4cc(Cl)ccc24)CCCC3)c2ccccc21` showed an IC50 of 10.9 nM.
`CCN1CC[C@@]2(C)c3cc(OC(=O)Nc4ccccc4)ccc3C[C@@H]12` came in with an IC50 of 176 nM.
The result for `O=C(CCc1c[nH]c2ccccc12)NCCCCCCCCCCNc1c2c(nc3cc(Cl)ccc13)CCCC2` reads 21.9 nM; that for `Cc1cn2cc(C(N)=O)ccc2[n+]1C`, 27000 nM.
The result for `O=C(CCCc1c[nH]c2ccccc12)NCCCCCCNc1c2c(nc3cc(Cl)ccc13)CCCC2` reads 0.5 nM; that for `CC(C)c1cc(-c2ccccc2)nnc1NCCC1CCN(Cc2ccccc2)CC1`, 430 nM; that for `CCN1CC[C@@]2(C)c3cc(OC(=O)NC(C)c4ccccc4)ccc3C[C@@H]12` (stereo partly specified), 1330 nM.
For `O=C1Cc2ccccc2CN1CCC1CCN(Cc2ccccc2)CC1`, half-maximal inhibition (IC50) required 17 nM.
The result for `CNC(=O)Oc1cccc(CN(C)CCCCCCCOc2ccc3c(c2)C/C(=C\c2cc(O)c(O)c(O)c2)C3=O)c1` reads 1.8 nM.
The figure for `Cc1c(/N=C/c2ccccc2O)cc2c(c1N)C(C)(C)CC2(C)C` is 16000 nM; for `O=C(CCC1CCN(Cc2ccccc2)CC1)c1ccc2c(c1)CCCN2c1ccccc1` it is 54 nM; for `O=c1[nH]c2cc(Cl)ccc2c(=O)n1CCC1CCN(Cc2ccccc2)CC1` it is 4.5 nM.
In turn, `CCCN1CCCCc2ccc(C(=O)CCC3CCN(Cc4ccccc4)CC3)cc21` had an IC50 of 1330 nM. This IC50 is about 300-fold higher than that of the molecule before.
Molecule `c1ccc2c(NCCCCCCCNc3c4c(nc5ccccc35)CCC4)c3c(nc2c1)CCC3` showed an IC50 of 75 nM.
As to `O=C(CCC1CCN(Cc2cccc(F)c2)CC1)c1ccc2c(c1)NCCCC2`, the midpoint of inhibition, the IC50, lay at 145 nM.
The figure for `CCCCCCNC(=O)Oc1ccc2c(c1)[C@]1(C)CCN(CC)[C@@H]1C2` is 45 nM; for `Clc1ccc2c(Nc3ccccc3)c3c(nc2c1)CCCC3` it is 170 nM; for `N#Cc1cc(-c2ccccc2)nnc1NCCN1CCOCC1` [BAZINAPRINE] it is 100000 nM.
The figure for `O=C(CCC1CCN(Cc2ccccc2)CC1)c1ccc2c(c1)OCO2` is 30 nM; for `O=C(CCC1CCN(Cc2ccccc2)CC1)c1ccc2c(c1)NCCC2` it is 164 nM; for `O=C(NCCCCCCCCNc1c2c(nc3cc(Cl)ccc13)CCCC2)c1c[nH]c2ccccc12` it is 46 nM.
The result for `O=C1c2ccccc2CCC1CC1CCN(c2ccccc2)CC1` (stereo unspecified) reads 2100 nM; that for `c1ccc2c(NCCCCCCCNc3c4c(nc5ccccc35)CCCC4)ccnc2c1`, 10.1 nM.
Take `O=C(CCC1CCN(Cc2ccc(Cl)cc2)CC1)c1ccc2c(c1)CCN2`: the IC50 was determined as 6360 nM.
The result for `COc1cc2c(cc1OC)C(O)C(CC1CCN(c3ccccc3)CC1)C2` (stereo unspecified) reads 300 nM; that for `O=[N+]([O-])c1ccc2nc3c(c(Nc4ccccc4)c2c1)CCCC3`, 1600 nM; that for `CN(C)C(=O)Oc1cccc(-c2cn3c(Cl)cccc3[n+]2C)c1`, 12600 nM.
The figure for `Cc1cccc2n1cc(-c1ccc(OC(=O)N(C)C)cc1)[n+]2C` is 1300 nM; for `O=C(CCOCCc1c[nH]c2ccccc12)NCCCCCNc1c2c(nc3cc(Cl)ccc13)CCCC2` it is 1.5 nM; for `O=C(C1CCCCC1)N(CCC1CCN(Cc2ccccc2)CC1)c1ccccc1` it is 9400 nM.
`c1ccc(-c2ncc(NCN3CCCCC3)nn2)cc1` displayed an IC50 of 57000 nM.
The result for `O=C1c2ccc([N+](=O)[O-])cc2C(=O)N1CCC1CCN(Cc2ccc(Cl)cc2)CC1` reads 240 nM.
The result for `O=C(c1ccncc1)N(CCC1CCN(Cc2ccccc2)CC1)c1ccccc1` reads 64 nM; that for `CCCCCN1CCc2cc(C(=O)CCC3CCN(Cc4ccccc4)CC3)ccc21`, 47 nM.
For the molecule `O=C1Cc2ccccc2C(=O)N1CCC1CCN(Cc2ccccc2)CC1`, the IC50 turned out to be 23 nM.
The result for `Nc1c2c(nc3ccccc13)-c1cc(Br)ccc1CC2` reads 144000 nM.
In turn, `c1ccc2c(NCCCCCCCCNc3c4c(nc5ccccc35)CCCC4)ccnc2c1` returned a half-maximal inhibitory concentration (IC50) of 8.8 nM.
The result for `Cc1cc(-c2ccccc2)nnc1NCCC1CCN(Cc2ccccc2)CC1` reads 320 nM; that for `COc1ccc(NC(=S)NCCOCCN(C)Cc2cccc([N+](=O)[O-])c2)cc1OC`, 1500 nM; that for `CN(CCOCCNC(=S)NC1CCCCC1)Cc1ccccc1`, 1400 nM.
On to `O=C(CCC1CCN(Cc2cccc([N+](=O)[O-])c2)CC1)c1ccc2c(c1)NCCCC2`, for which it took 390 nM to reach half-maximal inhibition (IC50).
The result for `Cc1ccc2c(Nc3ccccc3)c3c(nc2c1)CCCC3` reads 750 nM; that for `c1ccc2c(NCCCCCCCCCNc3ccncc3)c3c(nc2c1)CCCC3`, 83 nM.
The figure for `c1ccc(CN2CCC(CCN=c3[nH]nc(-c4ccccc4)c4ccccc34)CC2)cc1` is 440 nM.
The result for `O=C(CCC1CCN(Cc2ccccc2)CC1)c1ccc2c(c1)CCCN2` reads 54 nM.
In the case of `O=C1c2cccc([N+](=O)[O-])c2C(=O)N1CCC1CCN(Cc2ccccc2)CC1`, the 50% inhibitory concentration (IC50) is 9 nM.
The figure for `c1ccc(CN2CCC(CNc3nsc4ccccc34)CC2)cc1` is 99 nM; for `CCCCCCCNC(=O)Oc1ccc2c(c1)[C@]1(C)CCN(CCC)[C@@H]1C2` it is 93 nM.
As for `Cc1cc(-c2ccc3c(c2)OCO3)nnc1NCCN1CCCCC1`, the IC50 worked out at 1000 nM.
The result for `c1cnc2nc3c(c(NCCCCCCCNc4c5c(nc6ncccc46)CCCC5)c2c1)CCCC3` reads 1.3 nM; that for `O=C(Cc1c[nH]c2ccccc12)NCCCCCCCNc1c2c(nc3cc(Cl)ccc13)CCCC2`, 0.2 nM.
Molecule `O=C(CCC1CCN(Cc2ccccc2)CC1)c1ccc2c(c1)NCCCCC2` came in with an IC50 of 127 nM.
The figure for `O=C(NCCCCCCCNc1c2c(nc3cc(Cl)ccc13)CCCC2)c1c[nH]c2ccccc12` is 36 nM; for `O=C1c2ccccc2CC1CC1CCN(c2ccccc2)CC1` (stereo unspecified) it is 150 nM; for `CNC(=O)Oc1ccc(-c2cn3ccccc3[n+]2C)cc1` it is 19500 nM.
The figure for `Clc1ccc2c(NCCCCCCCNc3c4c(nc5cc(Cl)ccc35)CCCC4)c3c(nc2c1)CCCC3` is 0.07 nM.
`CN(C)C(=O)Oc1ccc(-c2cn3c(NC(=O)c4ccccc4)cccc3[n+]2C)cc1` came in with a concentration for half-maximal inhibition (IC50) of 200 nM.
`CN(CCOCCNC(=S)NC(=O)c1ccccc1)Cc1ccccc1` had an IC50 of 120 nM.
The result for `O=C(CCC1CCN(Cc2ccccc2)CC1)c1ccc2c(c1)N(c1ccccc1)CCC2` reads 1490 nM; that for `CC(=O)N(CCC1CCN(Cc2ccccc2)CC1)c1ccc(F)cc1`, 205 nM; that for `NCCCCCCCCCNc1c2c(nc3ccccc13)CCCC2`, 131 nM.
The result for `CCCCCCNC(=O)Oc1cccc(CN(C)CCCOc2ccc3ccc(=O)oc3c2)c1` reads 13 nM; that for `c1ccc(CN2CCC(CNc3ccc(-c4ccccc4)nn3)CC2)cc1`, 56000 nM; that for `COc1ccccc1CN(C)CCCN(C)CCCNCCC[n+]1c(-c2ccccc2)c2cc(N)ccc2c2ccc(N)cc21`, 894 nM.
`Nc1ccc2c(c1)c(-c1ccccc1)[n+](CCCNCCCNCCCNc1c3c(nc4ccccc14)CCCC3)c1cc(N)ccc21` gave an IC50 of 1.49 nM. This IC50 lies about 600-fold lower than the previous one.
In turn, `CNC(=O)Oc1cccc(CN(C)CCCCCCCOc2ccc3c(c2)O/C(=C\c2cc(O)c(O)c(O)c2)C3=O)c1` showed an IC50 of 0.52 nM. Against the preceding molecule, the IC50 is about 2.9-fold lower.
As to `CN(C)CCCCCCCCCNc1c2c(nc3ccccc13)CCCC2`, the midpoint of inhibition, the IC50, lay at 71 nM.
The result for `CCCCCCNC(=O)Oc1cccc(CN(C)CCCOc2ccc3c(=O)ccoc3c2)c1` reads 21 nM; that for `c1ccc(-c2cnc(NCN3CCCCC3)nn2)cc1`, 60000 nM.
Consider `COc1ccccc1CN1CCC(CCC(=O)c2ccc3c(c2)CCN3)CC1`, for which the IC50 was 812 nM.
Regarding `O=C(CCc1c[nH]c2ccccc12)NCCCCCCCCNc1c2c(nc3cc(Cl)ccc13)CCCC2`, the concentration for half-maximal inhibition (IC50) came out at 0.5 nM.
The figure for `O=C1Nc2ccccc2CN1CCC1CCN(Cc2ccccc2)CC1` is 13 nM.
The figure for `c1ccc(CN2CCC(CNc3n[nH]c4ccccc34)CC2)cc1` is 120 nM; for `COc1ccc2c(c1)CCc1c-2nc2ccccc2c1N` it is 47000 nM; for `O=C1c2ccccc2CCN1CCC1CCN(Cc2ccccc2)CC1` it is 1000 nM.
The result for `CNC(=O)Oc1cccc(-c2cn3c(NC(C)=O)cccc3[n+]2C)c1` reads 4500 nM.
In the case of `COc1cccc2n1cc(-c1ccc(OC(=O)N(C)C)cc1)[n+]2C`, the IC50 was 8100 nM.
The figure for `O=C(CCCc1c[nH]c2ccccc12)NCCCCCNc1c2c(nc3cc(Cl)ccc13)CCCC2` is 0.3 nM; for `c1ccc(-c2nnc(NCN3CCCCC3)s2)cc1` it is 54000 nM; for `O=C1CNc2cc3onc(CCC4CCN(Cc5ccccc5)CC4)c3cc2C1` it is 0.48 nM.
The figure for `COc1cccc(N(CCC2CCN(Cc3ccccc3)CC2)C(C)=O)c1` is 46 nM.
As to `CN(CCCCCNc1ccc(-c2ccccc2)nn1)Cc1ccccc1`, the IC50 came out at 740 nM.
The result for `CNC(=O)Oc1cccc(CN(C)CCCOc2ccc3c(c2)O/C(=C\c2cc(O)c(O)c(O)c2)C3=O)c1` reads 2.99 nM; that for `CN(CCOCCNC(=S)Nc1ccccn1)Cc1ccccc1`, 4000 nM.
The figure for `CC1Cc2c(nc3ccccc3c2N)C1(C)O` (stereo unspecified) is 134000 nM; for `Nc1c2c(nc3ccccc13)-c1ccccc1NCCC2` it is 391000 nM.
The figure for `CCN1CC[C@@]2(C)c3cc(OC(=O)NC)ccc3C[C@@H]12` is 38 nM; for `O=c1c2ccccc2ccn1CCC1CCN(Cc2ccccc2)CC1` it is 1100 nM; for `O=C(CCOCCc1c[nH]c2ccccc12)NCCCCCCNc1c2c(nc3cc(Cl)ccc13)CCCC2` it is 0.7 nM.
`O=C(CCC1CCN(Cc2ccccc2)CC1)c1ccc2c(c1)CCN2c1ccccc1`: the IC50 was 68 nM.

(Values after ChEMBL document CHEMBL1155460, “Prediction of acetylcholinesterase inhibitors and characterization of correlative molecular descriptors by machine learning methods” (Eur J Med Chem, 2010).)
